Entries after “also recorded” stand apart in the source; their conditions may differ. Each block holds one molecule with its values, some of them ahead of it.
How the values were obtained:
[1] = system: etiolated Arabidopsis seedlings; test: Cotyledon natural fluorescence by deconvoluting microscopy; assay type: in vivo; details: hormone applied to etiolated cotyledons; 24 h; 1.0 μM ABA, 500 μM JA
Experimental: Fluorescent images were obtained of living unfixed seedlings 24 h post BL or ABA treatment as described in the “Plant Growth and Preparation of Tissue” section. Optical sectioning was achieved by using a Zeiss Axiovert 200M microscope (Carl Zeiss), equipped with ApoTome (collected by grid projection), and a digital camera and the 4#,6-diamino-phenylindole, fluorescein isothiocyanate, and Texas Red filter sets (Chroma). Photographs of whole cotyledon fluorescence were snapped on the same microscope set up, minus the apoTome setting.
The preparation of whole cell extracts from the areal portions of the seedlings for the quantification of Phe levels and PD1 activity levels is described in (Warpeha et al., Plant Physiol. 143:1590-1600, 2007). Phe concentration is determined by HPLC. […] Natural fluorescence of the cotyledons is visualized and quantitated by deconvoluting microscopy using a “DAPI-Long Pass” filter which allows excitation between 300-380 nm and emits with a cutoff […] 400 nm.
If the Phe produced by activated PD1 is necessary for the ability of young etiolated seedlings to respond to UV-B, salt or heat stress, then it is possible that the addition of exogenous Phe (effectively cross feeding Phe) could restore a wild type response to GCR1, GPA1 and PD1 mutants when assayed for cotyledon fluorescence and the ability to survive sub-lethal levels of UV-C. To determine if exogenous Phe can restore wild type responses to GCR1, GPA, and PD1 mutants, 1 mM Phe is added to the top agar during planting and the experiment described above specifically testing for cotyledon surface fluorescence and the ability to survive sub-lethal levels of UV-C is repeated. Serine and […] are used as negative controls in these assays.
The experiments described above for examining if GCR1, GPA1 and PD1 are required for young etiolated seedlings to respond to UV-B, salt or heat stress are performed but with ABA, ACC, JA and SA substituting for UV-B, salt and heat. For these experiments, ABA is tested at 1.0 μM dissolved in ethanol and applied as an atomized mist. […]

[2] = Stability of absorbance spectra of cell free extracts with or without phenylalanine; assay type: physicochemical, Arabidopsis; details: cell free extracts in buffer; 24 h, room temperature or +4° C., lab lighting
Experimental: Cell free extracts were left at room temperature for 24 h after a 10^5 μmol m^−2 treatment of UV (366 nm) in lab lighting (which is fluorescent).

PD1 [3] = test: Cytosolic PD1 activity after ABA treatment of etiolated seedlings; assay type: in vivo, Arabidopsis; details: ABA treatment of etiolated wild type
From the text: Activated GPA1 has a specific physical interaction with PD1 that results in a significant increase in PD1 activity. PD1 is the only member of the PD family that is expressed in etiolated Arabidopsis. […] The increase in PD1 activity in response to BL or ABA treatment also requires GCR1. BL Irradiation or ABA treatment of pd1, gcr1 and gpa1 T-DNA insertion mutants result in none of these events described for wt. We conclude that GCR1, GPA1 and PD1 form a signaling chain that is responsible for ABA and BL induced synthesis of phenylpyruvate, phenylalanine and a series of UV absorbing products from the phenylpropanoid pathway. In etiolated seedlings phenylalanine is synthesized via a phenylpyruvate intermediate, much like in bacteria and fungi, and not via an arogenate pathway (Warpeha et al., Plant Physiol. 140:844-855).
All plants are returned to complete darkness for two hours after which cytosolic extracts are prepared and assayed as described infra.

Lhcb expression = test: Lhcb RNA levels by northern analysis after ABA treatment of etiolated seedlings; assay type: in vivo, Arabidopsis; details: 800 nM ABA
Experimental: Six-d-old dark-grown Arabidopsis seedlings col wild type or insertion mutants were grown on 0.8% agarose plates containing only 0.5× Murashige and Skoog media as described in Lapik and Kaufman (2003). The growth media contains no additional sugar, hormones, vitamins or other nutrients. Seedlings were irradiated with a single pulse (10 s) of low fluence BL (total fluence of 10^2 μmol m^−2); or a single pulse (100 s) of saturation fluence BL (total fluence of 10^4 μmol m^−2); or no light (DK), and/or, treated with 800 nM ABA dissolved in ethanol, or ethanol alone, placed back in the dark for two h after which total RNA was extracted and used for northern blot analysis (Lapik and Kaufman, 2003). Lhcb and rDNA probes used, quantitation methods, and means of normalization to rRNA levels are described elsewhere (Marrs and Kaufman, (1991) Planta 183: 327-333). […] All induction data is correct for loading through the quantitation of the rRNA as described (Warpeha and Kaufman, (1990) Planta 182: 553-558). […] Real time quantitative PCR (qPCR) was used to measure the level of Lhcb RNA induction in response to a single pulse of low fluence blue light as a confirmation of the Northern blot analysis methods. […] The qPCR-derived information (4 different RNA sets of Dark and BL-treated) data was analyzed using (ΔΔCoT). […]

PD1 [4] = target: T1, PD1 (Arabidopsis thaliana, UniProt Q9ZUY3); test: In vitro GPA1-PD1 activation assay; assay type: biochemical; details: compared with inactive (GDP or GDPβS) or no GPA1
T1 construct: Full-length GPA1 and PD1 templates were amplified, prepared, and purified by the methods described; made in house; host or cells: cell-free: TNT T7 coupled wheat germ extract system (Promega)
T1 sequence (Q9ZUY3 25-424): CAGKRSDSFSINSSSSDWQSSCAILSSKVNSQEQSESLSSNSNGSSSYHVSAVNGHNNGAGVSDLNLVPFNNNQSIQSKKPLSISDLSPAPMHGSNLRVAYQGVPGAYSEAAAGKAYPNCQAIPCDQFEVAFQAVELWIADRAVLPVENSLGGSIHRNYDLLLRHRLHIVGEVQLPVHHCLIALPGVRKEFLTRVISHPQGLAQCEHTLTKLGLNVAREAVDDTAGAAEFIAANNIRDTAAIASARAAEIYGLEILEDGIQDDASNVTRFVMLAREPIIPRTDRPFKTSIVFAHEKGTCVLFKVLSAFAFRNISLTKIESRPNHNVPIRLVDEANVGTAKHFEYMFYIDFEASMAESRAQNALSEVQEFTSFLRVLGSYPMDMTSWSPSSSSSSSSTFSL
T1 sequence (P18064 1-383 partner): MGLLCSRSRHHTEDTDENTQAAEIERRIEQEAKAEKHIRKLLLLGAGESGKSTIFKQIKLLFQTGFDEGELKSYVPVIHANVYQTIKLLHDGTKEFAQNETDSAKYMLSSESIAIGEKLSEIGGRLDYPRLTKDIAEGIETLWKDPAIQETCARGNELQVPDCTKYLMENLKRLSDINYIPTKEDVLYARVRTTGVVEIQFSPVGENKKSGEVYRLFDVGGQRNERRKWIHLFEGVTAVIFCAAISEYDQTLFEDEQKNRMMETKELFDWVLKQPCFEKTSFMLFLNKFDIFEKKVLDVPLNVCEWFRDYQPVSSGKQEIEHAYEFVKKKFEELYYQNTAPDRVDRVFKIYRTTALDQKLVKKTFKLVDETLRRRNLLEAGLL
Experimental: Full-length GPA1 and PD1 templates were amplified, prepared, and purified by the methods described (Lapik and Kaufman, 2003). GPA1 and PD1 proteins were individually produced by coupled in vitro transcription/translation using TNT T7 coupled wheat germ extract system (Promega). In vitro association assays were conducted by mixing approximately equimolar concentrations of GPA1 with PD1 in PD assay buffer at 4° C. with modifications for plants: 50 mM K2PO4 pH 7.5, 1.0 mM dithiothreitol, […], and 0.5% protease inhibitor cocktail for plants. Activated GPA1 was achieved by preincubation with […] (a nonhydrolyzable GTP analog). Inactivated GPA1 was achieved by preincubation with GDP, or GDPγS (a nonhydrolyzable GDP analog). […] Reaction mixtures were stopped at time zero and various time points thereafter by adding 0.5 volume of 1N NaOH.
The increase in activity occurs quickly as approximately 90% of the measured increase in activity occurs within the first 10 min of incubation.

Molecule: CC/C=C\C[C@H]1C(=O)CC[C@@H]1CC(=O)O [JA, jasmonic acid, reference compound]
- accumulation of UV- and BL-absorbing fluorescent material in cotyledons [1]: response pattern is identical to that of UV-B, salt and heat

Molecule: CSCC[C@H](N)C(=O)O [L-methionine, reference compound]
- stability of the extract solution (absorbance spectra, pigments) over time [2]: did not increase stability of the solution

Molecule: CC1=CC(=O)CC(C)(C)[C@@]1(O)/C=C/C(C)=C\C(=O)O [ABA, abscisic acid]
- cytosolic PD1 activity (PD1 [3]): increase in cytosolic PD1 activity
- accumulation of UV- and BL-absorbing fluorescent material in cotyledons [1]: phenotype identical to that observed in wild-type seedlings for BL irradiation; also recorded: response pattern is identical to that of UV-B, salt and heat
- Lhcb RNA accumulation in mutant seedlings (Lhcb expression; gcr1, gpa1, prn1, nf-y-b9, nf-y-a5 mutants): fails to induce Lhcb RNA accumulation
- Lhcb expression in wild type seedlings (Lhcb expression; six-d-old etiolated wild type): induces Lhcb expression

- increase in PD1 activity (PD1 [4]): 2 fold
B1: activated GPA1: Arabidopsis G-protein Gα subunit made by in vitro transcription/translation, activated with GTPγS (protein, UniProt P18064 2-383, looked up)
Guanine nucleotide-binding …: GLLCSRSRHHTEDTDENTQAAEIERRIEQEAKAEKHIRKLLLLGAGESGKSTIFKQIKLLFQTGFDEGELKSYVPVIHANVYQTIKLLHDGTKEFAQNETDSAKYMLSSESIAIGEKLSEIGGRLDYPRLTKDIAEGIETLWKDPAIQETCARGNELQVPDCTKYLMENLKRLSDINYIPTKEDVLYARVRTTGVVEIQFSPVGENKKSGEVYRLFDVGGQRNERRKWIHLFEGVTAVIFCAAISEYDQTLFEDEQKNRMMETKELFDWVLKQPCFEKTSFMLFLNKFDIFEKKVLDVPLNVCEWFRDYQPVSSGKQEIEHAYEFVKKKFEELYYQNTAPDRVDRVFKIYRTTALDQKLVKKTFKLVDETLRRRNLLEAGLL
modifications: GTPγS-bound

Reference: patent US8492614B2, “Plant biochemical systems and uses thereof” (The Board of Trustees of the University of Illinois, priority 2007, dated 2013)
